# Laboratory results as given in patent US20020155164A1, “System and method for the prevention of infections in human patients using nitric oxide” (priority 2001, published 2002).
# Tested on: bacteria
# Assay: Tests performed in vitro on bacteria
# Type: cell-based
# Conditions: many types of bacteria
# Text: The inventors of the instant invention have investigated NO for its use as a sterilizing agent in the prevention and treatment of infections. […] PCT International Application No. PCT/CA99/01123, a published Jun. 2, 2000, discloses a method and an apparatus for the treatment of human respiratory infections by NO inhalation.
structure (smiles),measurement,value
"[N]=O [NO, nitric oxide]",effect on growth / killing of bacteria,interfere with the growth of and/or kill many types of bacteria
